Earlier results on eleven molecules are cited in patent US20250367363A1, “METHODS OF LOCAL IRRIGATION FOR TREATING INFECTIONS” (Osteal Therapeutics, Inc., priority 2023, published 2025).

Read-outs that look alike come from different tables or passages of the source. *1 amine or outer side, *2 acyl side, *3 side chain or, on linkers, in order; H or OH if unused. Where a SMILES comes first, the peptide text is derived from it. Bridges are numbered along the chain shown (N, C = ends). [ ]: non-standard residue; d: D form. The star is where a group is joined. hTyr(3S-OH,4S-OH,3'-OSO3H) = N[C@H](C(=O)O)[C@H](O)[C@@H](O)c1ccc(O)c(OS(=O)(=O)O)c1; pTerphenylCO(4''-OnC5H11) = CCCCCOc1ccc(-c2ccc(-c3ccc(C(=O)*)cc3)cc2)cc1; Orn(4R-OH,5R-OH) = O=C([C@H](C[C@@H](O)[C@@H](O)N[*:3])N[*:1])[*:2]; hTyr(3S-OH,4S-OH) = N[C@H](C(=O)O)[C@H](O)[C@@H](O)c1ccc(O)cc1; Pro(3S-OH,4S-Me) = C[C@H]1CN[C@H](C(=O)O)[C@H]1O; X1 = CCCCCOc1ccc(-c2cc(-c3ccc(C(=O)*)cc3)no2)cc1; Gln(3R-OH) = NC(=O)C[C@@H](O)[C@H](N)C(=O)O; Hyp = O=C(O)[C@@H]1C[C@@H](O)CN1

For data set [1] the following is noted: systemic.

For the molecule `C[C@@H]1[C@H](O)[C@@H](C)/C=C/C=C/C=C/C=C/C=C/C=C/C=C/[C@H](O[C@@H]2O[C@H](C)[C@@H](O)[C@H](N)[C@@H]2O)C[C@@H]2O[C@](O)(C[C@@H](O)C[C@@H](O)[C@H](O)CC[C@@H](O)C[C@@H](O)CC(=O)O[C@H]1C)C[C@H](O)[C@H]2C(=O)O` [Amphotericin B], the “Safe IV Concentration” value (Table 3 antifungal agents) was 0.25 mg/mL.
Turning to `CCCCCOc1ccc(-c2ccc(-c3ccc(C(=O)N[C@H]4C[C@@H](O)[C@@H](O)NC(=O)[C@@H]5[C@@H](O)[C@@H](C)CN5C(=O)[C@H]([C@@H](C)O)NC(=O)[C@H]([C@H](O)[C@@H](O)c5ccc(O)cc5)NC(=O)[C@@H]5C[C@@H](O)CN5C(=O)[C@H]([C@@H](C)O)NC4=O)cc3)cc2)cc1` [Anidulafungin] ({pTerphenylCO(4''-OnC5H11)}-[Orn(4R-OH,5R-OH)]T[Hyp][hTyr(3S-OH,4S-OH)]T[Pro(3S-OH,4S-Me)]; lactam 1-C), the “Safe Daily Dose” value in data set [1] (Table 3 antifungal agents) is reported as 200 mg. In addition, the “Safe IV Concentration” value (Table 3 antifungal agents) is 1 mg/mL.
For the molecule `CC[C@H](C)C[C@H](C)CCCCCCCCC(=O)N[C@H]1C[C@@H](O)[C@@H](NCCN)NC(=O)[C@@H]2[C@@H](O)CCN2C(=O)[C@H]([C@H](O)CCN)NC(=O)[C@H]([C@H](O)[C@@H](O)c2ccc(O)cc2)NC(=O)[C@@H]2C[C@@H](O)CN2C(=O)[C@H]([C@@H](C)O)NC1=O` [Caspofungin], in data set [1] (Table 3 antifungal agents), the “Safe Daily Dose” value is 70 mg. Also, for the setting “Table 3 antifungal agents”, the “Safe IV Concentration” value was 0.5 mg/mL.
Consider `Cc1nnc(SCC2=C(C(=O)O)N3C(=O)[C@@H](NC(=O)Cn4cnnn4)[C@H]3SC2)s1` [Cefazolin], for which the “Safe Daily Dose” value in data set [1] (Table 2 antibiotics) is 6 g/day. Moreover, for the setting “Table 2 antibiotics”, the “Safe IV Concentration” value is reported as 330 mg/mL.
Regarding `CO/N=C(\C(=O)N[C@@H]1C(=O)N2C(C(=O)[O-])=C(C[N+]3(C)CCCC3)CS[C@H]12)c1csc(N)n1` [Cefepime], the “Safe Daily Dose” value in data set [1] (Table 2 antibiotics) is 6 g/day. The “Safe IV Concentration” value (Table 2 antibiotics) was 40 mg/mL.
Turning to `O=C(O)c1cn(C2CC2)c2cc(N3CCNCC3)c(F)cc2c1=O` [Ciprofloxacin], in data set [1] (Table 2 antibiotics), the “Safe Daily Dose” value is on record as 1.2 g/day. Under “Table 2 antibiotics”, the “Safe IV Concentration” value was 2 mg/mL.
In the case of `CCC[C@@H]1C[C@@H](C(=O)N[C@@H]([C@H]2O[C@H](SC)[C@H](O)[C@@H](O)[C@H]2O)[C@H](C)Cl)N(C)C1` [Clindamycin], in data set [1] (Table 2 antibiotics), the “Safe Daily Dose” value is listed as 2.7 g/day. The “Safe IV Concentration” value (Table 2 antibiotics) was 18 mg/mL.
Regarding `C[C@@H](c1nc(-c2ccc(C#N)cc2)cs1)[C@](O)(Cn1cncn1)c1cc(F)ccc1F` [Isavuconazole], the “Safe Daily Dose” value in data set [1] (Table 3 antifungal agents) is on record as 1116 mg. For the same molecule, the “Safe IV Concentration” value (Table 3 antifungal agents) was 1.488 mg/mL.
With `CCCCCOc1ccc(-c2cc(-c3ccc(C(=O)N[C@H]4C[C@@H](O)[C@@H](O)NC(=O)[C@@H]5[C@@H](O)[C@@H](C)CN5C(=O)[C@H]([C@H](O)CC(N)=O)NC(=O)[C@H]([C@H](O)[C@@H](O)c5ccc(O)c(OS(=O)(=O)O)c5)NC(=O)[C@@H]5C[C@@H](O)CN5C(=O)[C@H]([C@@H](C)O)NC4=O)cc3)no2)cc1` [Micafungin] (X1-[Orn(4R-OH,5R-OH)]T[Hyp][hTyr(3S-OH,4S-OH,3'-OSO3H)][Gln(3R-OH)][Pro(3S-OH,4S-Me)]; lactam 1-C), the “Safe Daily Dose” value in data set [1] (Table 3 antifungal agents) is recorded as 150 mg. Further, the “Safe IV Concentration” value (Table 3 antifungal agents) is 1.5 mg/mL.
With `CN[C@H](CC(C)C)C(=O)N[C@H]1C(=O)N[C@@H](CC(N)=O)C(=O)N[C@H]2C(=O)N[C@H]3C(=O)N[C@H](C(=O)N[C@H](C(=O)O)c4cc(O)cc(O)c4-c4cc3ccc4O)[C@H](O)c3ccc(c(Cl)c3)Oc3cc2cc(c3O[C@@H]2O[C@H](CO)[C@@H](O)[C@H](O)[C@H]2O[C@H]2C[C@](C)(N)[C@H](O)[C@H](C)O2)Oc2ccc(cc2Cl)[C@H]1O` [Vancomycin], the “Safe Daily Dose” value in data set [1] (Table 2 antibiotics) was 45 to 60 mg/kg/day. Besides, the “Safe IV Concentration” value (Table 2 antibiotics) is listed as 5 mg/mL.
As for Gentamicin, in data set [1] (Table 2 antibiotics), the “Safe Daily Dose” value is reported as 7 mg/kg/day. Moreover, the “Safe IV Concentration” value (Table 2 antibiotics) was 0.2 mg/mL.
